Target: IDH2 R140Q (Homo sapiens (Human), UniProt P48735, R140Q)
Assay: IDH2 R140Q enzymatic cofactor depletion assay (diaphorase/resazurin)
Type: biochemical
Settings: IDH2 R140Q enzyme, one hour preincubation with compound, one hour reaction; read-out: Enz R140Q
Experimental: The reaction was terminated by the addition of a second enzyme, diaphorase, and a corresponding substrate, resazurin. Diaphorase reduces resazurin to the highly fluorescent resorufin with the concomitant oxidation of NADPH to NADP, both halting the IDH2 reaction by depleting the available cofactor pool and facilitating quantitation of the amount of cofactor remaining after a specific time period through quantitative production of an easily detected fluorophore.
The compound was then incubated for one hour at room temperature with the enzyme; before starting the IDH2 reaction with the addition of 10 μl of substrate mix containing 50 μM NADPH and 6.3 mM α-KG in the buffer described above. After a further one hour of incubation at room temperature, the reaction was halted and the remaining NADPH measured through conversion of resazurin to resorufin by the addition of 25 μl Stop Mix (36 μg/ml diaphorase enzyme and 60 μM resazurin; in buffer). After one minute of incubation the plate was read on a plate reader at Ex544/Em590.

IDH2 R140Q, sequence (P48735 40-452 R140Q): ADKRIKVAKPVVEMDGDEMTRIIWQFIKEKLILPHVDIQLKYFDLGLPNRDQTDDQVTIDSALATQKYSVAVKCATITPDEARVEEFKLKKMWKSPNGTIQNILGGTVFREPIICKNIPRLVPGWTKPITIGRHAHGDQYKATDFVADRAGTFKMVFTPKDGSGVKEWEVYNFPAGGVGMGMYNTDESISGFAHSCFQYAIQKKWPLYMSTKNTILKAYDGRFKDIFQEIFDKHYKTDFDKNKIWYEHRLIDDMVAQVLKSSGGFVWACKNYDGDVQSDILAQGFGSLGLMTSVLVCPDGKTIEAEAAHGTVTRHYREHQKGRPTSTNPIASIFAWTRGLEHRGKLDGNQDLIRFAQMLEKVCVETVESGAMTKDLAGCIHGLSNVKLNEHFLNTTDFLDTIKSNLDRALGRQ

Structure (SMILES)	IC50 [nM]
O=C(Nc1cccc(C(F)(F)F)c1)Nc1cc(S(=O)(=O)Nc2ccccc2)ccc1C1CCCCO1 (stereo not shown) [Compound 170, N-phenyl-4-(tetrahydro-2H-pyran-2-yl)-3-(3-(3-(trifluoromethyl)phenyl)ureido)benzenesulfonamide]	100 to 1000
CCc1cccc(NC(=O)Nc2cc(S(=O)(=O)Nc3ccccc3)ccc2-c2ccsc2)c1 [Compound 5, 3-(3-(3-ethylphenyl)ureido)-N-phenyl-4-(thiophen-3-yl)benzenesulfonamide]	100 to 1000
O=C(Nc1cccc(S(=O)(=O)NCC(F)(F)F)c1)Nc1cc(C(F)(F)F)ccn1 [Compound 337, N-(2,2,2-trifluoroethyl)-3-(3-(4-(trifluoromethyl)pyridin-2-yl)ureido)benzenesulfonamide]	100 to 1000
O=C(Nc1cc(S(=O)(=O)NCC(F)(F)F)ccc1-c1ccccc1)Nc1ncccc1Cl [Compound 95]	1000 to 10000
O=C(Nc1ccc(F)c(F)c1)Nc1cc(S(=O)(=O)Nc2ccccc2)ccc1-c1ccsc1 [Compound 20]	1000 to 10000
N#CC1(NS(=O)(=O)c2ccc(-c3ccsc3)c(NC(=O)Nc3cccc(C(F)(F)F)c3)c2)CC1 [Compound 31, N-(1-cyanocyclopropyl)-4-(thiophen-3-yl)-3-(3-(3-(trifluoromethyl)phenyl)ureido)benzenesulfonamide]	< 100
O=C(Nc1ccc(F)c(Cl)c1)Nc1cc(S(=O)(=O)NCC2CC2)ccc1C1=CCOCC1 [Compound 155, 3-(3-(3-chloro-4-fluorophenyl)ureido)-N-(cyclopropylmethyl)-4-(3,6-dihydro-2H-pyran-4-yl)benzene sulfonamide]	100 to 1000
O=C(Nc1ncco1)Nc1cc(S(=O)(=O)Nc2ccccc2)ccc1-c1ccsc1 [Compound 23]	1000 to 10000
O=C(Nc1ccc(F)c(C(F)(F)F)c1)Nc1cc(S(=O)(=O)NCC(F)(F)F)ccc1-c1cccnc1 [Compound 56]	1000 to 10000
N#CC1(NS(=O)(=O)c2ccc(-c3ccccc3)c(NC(=O)Nc3cccc(C(F)(F)F)c3)c2)CC1 [Compound 46, N-(1-cyanocyclopropyl)-2-(3-(3-(trifluoromethyl)phenyl)ureido)-[1,1′-biphenyl]-4-sulfonamide]	100 to 1000
COc1ccc(-c2ccc(S(=O)(=O)Nc3ccccc3)cc2NC(=O)Nc2cccc(C(F)(F)F)c2)cc1 [Compound 59]	1000 to 10000
O=C(Nc1cc(S(=O)(=O)NCC(F)(F)F)ccc1-c1ccccc1)NC1CCCCC1 [Compound 66, 2-(3-cyclohexylureido)-N-(2,2,2-trifluoroethyl)-[1,1′-biphenyl]-4-sulfonamide]	100 to 1000
O=C(Nc1cccc(C(F)(F)F)c1)Nc1cc(S(=O)(=O)NC2COC2)ccc1-c1ccsc1 [Compound 32, N-(oxetan-3-yl)-4-(thiophen-3-yl)-3-(3-(3-(trifluoromethyl)phenyl)ureido)benzenesulfonamide]	< 100
O=C(Nc1cccc(Cl)n1)Nc1cc(S(=O)(=O)NCC(F)(F)F)ccc1-c1ccccc1 [Compound 79, 2-(3-(6-chloropyridin-2-yl)ureido)-N-(2,2,2-trifluoroethyl)-[1,1′-biphenyl]-4-sulfonamide]	100 to 1000
Cc1cc(NC(=O)Nc2cc(S(=O)(=O)NCC(F)(F)F)ccc2-c2ccccc2)nn1C [Compound 91, 2-(3-(1,5-dimethyl-1H-pyrazol-3-yl)ureido)-N-(2,2,2-trifluoroethyl)-[1,1′-biphenyl]-4-sulfonamide]	100 to 1000
O=C(Nc1cccc(C(F)(F)F)c1)Nc1cc(S(=O)(=O)NC2COC2)cnc1OCC1CC1 [Compound 198, 6-(cyclopropylmethoxy)-N-(oxetan-3-yl)-5-(3-(3-(trifluoromethyl)phenyl)ureido)pyridine-3-sulfonamide]	100 to 1000
COCCNS(=O)(=O)c1ccc(-c2ccsc2)c(NC(=O)Nc2cccc(C(F)(F)F)c2)c1 [Compound 121, N-(2-methoxyethyl)-4-(thiophen-3-yl)-3-(3-(3-(trifluoromethyl)phenyl)ureido)benzenesulfonamide]	100 to 1000
O=C(Nc1cccc(C(F)(F)F)c1)Nc1cc(S(=O)(=O)N2CCC2)ccc1-c1ccsc1 [Compound 140]	1000 to 10000
O=C(Nc1ccccc1)Nc1cc(S(=O)(=O)Nc2ccccc2)ccc1-c1ccsc1 [Compound 1, N-phenyl-3-(3-phenylureido)-4-(thiophen-3-yl)benzenesulfonamide]	100 to 1000
Cc1ccc(-c2ccc(S(=O)(=O)Nc3ccccc3)cc2NC(=O)Nc2cccc(C(F)(F)F)c2)cc1 [Compound 62]	1000 to 10000
O=C(Nc1cccc(Cl)c1)Nc1cc(S(=O)(=O)NCC(F)(F)F)ccc1-c1ccccc1 [Compound 88, 2-(3-(3-chlorophenyl)ureido)-N-(2,2,2-trifluoroethyl)-[1,1′-biphenyl]-4-sulfonamide]	100 to 1000
O=C(Nc1ccc(F)cc1)Nc1cc(S(=O)(=O)NCC2CC2)ccc1C1=CCOCC1 [Compound 153]	1000 to 10000

Structure (SMILES)	IC50 [nM]
Cc1cccc(NC(=O)Nc2cc(S(=O)(=O)Nc3ccccc3)ccc2-c2ccsc2)c1 [Compound 3, N-phenyl-4-(thiophen-3-yl)-3-(3-(m-tolyl)ureido)benzenesulfonamide]	100 to 1000
O=C(Nc1cc(F)ccc1Cl)Nc1cc(S(=O)(=O)NCC(F)(F)F)ccc1-c1ccccc1 [Compound 90, 2-(3-(2-chloro-5-fluorophenyl)ureido)-N-(2,2,2-trifluoroethyl)-[1,1′-biphenyl]-4-sulfonamide]	100 to 1000
O=C(Nc1cc(S(=O)(=O)NCC(F)(F)F)ccc1-c1ccccc1)Nc1ncccc1C(F)(F)F [Compound 104, N-(2,2,2-trifluoroethyl)-2-(3-(3-(trifluoromethyl)pyridin-2-yl)ureido)-[1,1′-biphenyl]-4-sulfonamide]	1000 to 10000
Cc1cc(C)cc(NC(=O)Nc2cc(S(=O)(=O)Nc3ccccc3)ccc2-c2ccsc2)c1 [Compound 16]	1000 to 10000
COc1ccccc1NC(=O)Nc1cc(S(=O)(=O)Nc2ccccc2)ccc1-c1ccsc1 [Compound 6, 3-(3-(2-methoxyphenyl)ureido)-N-phenyl-4-(thiophen-3-yl)benzenesulfonamide]	100 to 1000
O=C(Nc1cccc(C(F)(F)F)c1)Nc1cc(S(=O)(=O)NCC(F)(F)F)ccc1OCC1CCOC1 (stereo not shown) [Compound 184, 4-((tetrahydrofuran-3-yl)methoxy)-N-(2,2,2-trifluoroethyl)-3-(3-(3-(trifluoromethyl)phenyl)ureido)benzenesulfonamide]	100 to 1000
O=C(Nc1cccc(C(F)(F)F)c1)Nc1cc(S(=O)(=O)NC2CCC2)ccc1-c1ccsc1 [Compound 125, N-cyclobutyl-4-(thiophen-3-yl)-3-(3-(3-(trifluoromethyl)phenyl)ureido)benzenesulfonamide]	100 to 1000
CC1(C)CCCC(NC(=O)Nc2cc(S(=O)(=O)NCC(F)(F)F)ccc2-c2ccccc2)C1 (stereo not shown) [Compound 73]	1000 to 10000
CCS(=O)(=O)c1ccc(S(=O)(=O)NCC(F)(F)F)cc1NC(=O)Nc1cccc(C(F)(F)F)c1 [Compound 196, 4-(ethylsulfonyl)-N-(2,2,2-trifluoroethyl)-3-(3-(3-(trifluoromethyl)phenyl)ureido)benzenesulfonamide]	< 100
O=C(Nc1cccc(C(F)(F)F)c1)Nc1cc(S(=O)(=O)NCC(F)(F)F)ccc1Oc1cccnc1 [Compound 186, 4-(pyridin-3-yloxy)-N-(2,2,2-trifluoroethyl)-3-(3-(3-(trifluoromethyl)phenyl)ureido)benzenesulfonamide]	100 to 1000
O=C(Nc1cc(S(=O)(=O)Nc2ccccc2)ccc1-c1ccsc1)Nc1ccccc1C(F)(F)F [Compound 10, N-phenyl-4-(thiophen-3-yl)-3-(3-(2-(trifluoromethyl)phenyl)ureido)benzenesulfonamide]	100 to 1000
O=C(Nc1cccc(C(F)(F)F)c1)Nc1cc(S(=O)(=O)Nc2ccccc2)ccc1-c1cccc(F)c1 [Compound 64]	1000 to 10000
O=C(Nc1cccc(C(F)(F)F)c1)Nc1cc(S(=O)(=O)Nc2ccccc2)ccc1-c1ccncc1 [Compound 60]	1000 to 10000
O=C(Nc1cc(S(=O)(=O)NCC(F)(F)F)ccc1-c1ccccc1)Nc1cnccc1C(F)(F)F [Compound 84, N-(2,2,2-trifluoroethyl)-2-(3-(4-(trifluoromethyl)pyridin-3-yl)ureido)-[1,1′-biphenyl]-4-sulfonamide]	100 to 1000
O=C(Nc1cccc(C(F)(F)F)c1)Nc1cc(S(=O)(=O)NC2CC2)cnc1-n1ccnc1 [Compound 355]	100 to 1000
O=C(Nc1cccc(C(F)(F)F)c1)Nc1cc(S(=O)(=O)Nc2ccccc2)ccc1Oc1ccccc1 [Compound 192, 4-phenoxy-N-phenyl-3-(3-(3-(trifluoromethyl)phenyl)ureido)benzenesulfonamide]	100 to 1000
O=C(Nc1cccc(C(F)(F)F)c1)Nc1cc(S(=O)(=O)Nc2ccccc2)ccc1-c1cccnc1 [Compound 61]	1000 to 10000
CS(=O)(=O)c1cccc(-c2ccc(S(=O)(=O)Nc3ccccc3)cc2NC(=O)Nc2cccc(C(F)(F)F)c2)c1 [Compound 58]	1000 to 10000
O=C(Nc1ccc(F)c(C(F)(F)F)c1)Nc1cc(S(=O)(=O)NCC(F)(F)F)ccc1-c1ccccc1 [Compound 69, 2-(3-(4-fluoro-3-(trifluoromethyl)phenyl)ureido)-N-(2,2,2-trifluoroethyl)-[1,1′-biphenyl]-4-sulfonamide]	100 to 1000
O=C(Nc1ncc(Cl)s1)Nc1cc(S(=O)(=O)NCC(F)(F)F)ccc1C1CCOC1 (stereo not shown) [Compound 172, 3-(3-(5-chlorothiazol-2-yl)ureido)-4-(tetrahydrofuran-3-yl)-N-(2,2,2-trifluoroethyl)benzene sulfonamide]	1000 to 10000
CN(c1ccccc1)S(=O)(=O)c1ccc(-c2ccsc2)c(NC(=O)Nc2cccc(C(F)(F)F)c2)c1 [Compound 143]	1000 to 10000
